Test results published in US5955489A, “Taxane derivatives, the preparation thereof and formulations containing them” (Indea S.p.A., priority 1996, dated 1999).
Where two headings read alike, the source gives them in different places.

How the values were obtained:
[1] = tested on: Line MCF7-ADRr (adriamycin-resistant); assay: cytotoxicity on an adriamycin-resistant cell line (Line MCF7-ADRr); assay type: cell-based; details: read-out: IC50 Line MCF7-ADRr
[2] = tested on: Line MDA (normal ovary cell line); assay: cytotoxicity on a normal ovary cell line (Line MDA); assay type: cell-based; details: read-out: IC50 Line MDA
[3] = Line MDA, normal ovary cell line

Row | Molecule | IC50 [1] [nM] | IC50 [2, 3] [nM] | IC50 [2] [nM] | IC50 ([1]; Line MCF7-ADRr, adriamycin-resistant) [nM]
1 | 13-(N-Boc-phenylisoserinyl)-10-dehydro-10-deacetyl-baccatine III pyrazoline [Compound of example 4] | 264 | 1.2 |  | 
2 | CC(=O)O[C@@]12CO[C@@H]1CC1NN=C3C(=O)C4=C(C)[C@@H](OC(=O)[C@H](O)[C@@H](NC(=O)c5ccccc5)c5ccccc5)C[C@@](O)([C@@H](OC(=O)c5ccccc5)[C@H]2[C@]31C)C4(C)C (stereo partly drawn) [Compound of example 2, 10-deacetyl-10-dehydro-Paclitaxel pyrazoline] |  |  | 3.1 | 
3 | CC(=O)O[C@@]12CO[C@@H]1CC1NN=C3C(=O)C4=C(C)[C@@H](OC(=O)[C@H](O)[C@H](CC(C)C)NC(=O)OC(C)(C)C)C[C@@](O)([C@@H](OC(=O)c5ccccc5)[C@H]2[C@]31C)C4(C)C (stereo partly drawn) [Compound of example 5, 13-(N-Boc-3'-isobutyl)-isoserinyl-10-dehydrobaccatine III pyrazoline] |  |  | 1.4 | 
4 | CC(=O)O[C@@]12CO[C@@H]1CC1NN=C3C(=O)C4=C(C)[C@@H](OC(=O)[C@H](O)[C@@H](NC(=O)OC(C)(C)C)c5ccccc5)[C@@H]5OC(=O)O[C@]5([C@@H](OC(=O)c5ccccc5)[C@H]2[C@]31C)C4(C)C (stereo partly drawn) [Compound of example 6, 13-(N-Boc-phenyl-isoserinyl)-1,14-carbonate10-dehydro-10-deacetyl-baccatine III pyrazoline] |  |  | 2.1 | 
5 | CC(=O)O[C@@]12CO[C@@H]1C[C@H](O)[C@@]1(C)C(=O)[C@H](O)C3=C(C)[C@@H](OC(=O)[C@H](O)[C@@H](NC(=O)OC(C)(C)C)c4ccccc4)C[C@@](O)([C@@H](OC(=O)c4ccccc4)[C@H]21)C3(C)C [Docetaxel, reference compound] |  | 0.8 |  | 700
6 | CC(=O)O[C@H]1C(=O)[C@@]2(C)[C@H]([C@H](OC(=O)c3ccccc3)[C@]3(O)C[C@H](OC(=O)[C@H](O)[C@@H](NC(=O)c4ccccc4)c4ccccc4)C(C)=C1C3(C)C)[C@]1(OC(C)=O)CO[C@@H]1C[C@@H]2O [Paclitaxel, reference compound] | 2600 |  | 2.4 | 
